Experimental data taken from US5952307A, “Basic α-aminoalkylphosphonate derivatives” (priority 1997, dated 1999).
Like-named read-outs stand apart in the source and are kept apart here.

Assays:
Format in all cases: biochemical
mast cell tryptase = mast cell tryptase (Homo sapiens, UniProt Q15661); experiment: Inactivation rate of mast cell tryptase, incubation method; conditions: for kobs /[I] mast cell tryptase: 25° C., NI = no inhibition
Procedure, shortened: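 Incubation method at 25 °C: 0.07 μM tryptase with 20–66 μM inhibitor in Hepes pH 7.5 containing heparin, glycerol and DMSO. Aliquots were withdrawn at intervals for residual activity on Z-Arg-SBzl or Z-Lys-SBzl with DTNB. Pseudo-first-order kobs came from ln(vt/v0) versus time.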

human thrombin = molecular target: T1, human thrombin (Homo sapiens, UniProt P00734); conditions: 25° C., NI = no inhibition
T1 construct: bovine trypsin, human thrombin
Procedure, shortened: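 Irreversible inactivation followed by incubation method at 25 °C: 0.07 μM thrombin with 0.25–42 μM inhibitor in 80 mM Hepes pH 7.5, 428 mM NaCl, 8% DMSO. Residual activity of withdrawn aliquots measured with thioester or 4-nitroanilide substrates; kobs from pseudo-first-order fits.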

plasmin = molecular target: T2, plasmin (Homo sapiens, UniProt P00747); experiment: Inactivation rate of plasmin, incubation method; conditions: Table III; for kobs /[I] plasmin: enzyme 0.06-0.5 μM, inhibitor 0.25-42 μM, 9% DMSO, 25° C., NI = no inhibition
T2 construct: factor Xa, plasmin, and urokinase
Experimental: (§1) Inactivation rates of serine proteases by aryl diesters of peptidyl derivatives of α-aminoalkylphosphonates were measured by the incubation method. An aliquot of inhibitor (25 or 50 μl) in Me2 SO was added to a buffered enzyme solution (0.01-2.3 μM) to initiate the inactivation. Aliquots (50 μl) were withdrawn at various intervals and the residual enzymatic activity was measured. Me2 SO concentration in the reaction mixture was 8-12% (v/v). A 0.1 M HEPES, 0.01 M CaCl2, pH 7.5 buffer was utilized for trypsin and trypsin-like enzymes. A 0.1 M HEPES, 0.5 M NaCl, pH 7.5, was utilized for the other serine proteases. Peptide thioesters or peptide nitroanilides with the appropriate sequences were used as substrates for various serine proteases. All peptide thioesters hydrolysis rates were measured with the assay mixture containing 4,4'-dithiodipyridine {ε324 =19800 M^-1 cm^-1; Grasetti & Murray, Arch. Biochem. Biophys. 1967, 119, 41-48}. Peptide 4-nitroanilide hydrolysis was measured at 410 nm {ε410 =8800 M^-1 cm^-1; Erlanger et al., Arch. Biochem. Biophys. 1961, 95, 271-278}. First order inactivation rate constants (Kobs) were obtained from plots of In vt /vo vs time, and the correlation coefficients were greater then 0.98.
(§2) ^a Enzyme (0.06-0.5 μM) was incubated with the inhibitor (0.25-42
(§3) μM) in 250 μL of the proper buffer containing 9% DMSO at 25°
(§4) C. The final inhibition reaction mixtures are given in the footnote to
(§5) Table 1. Aliquots of 25 μL were withdrawn at various intervals and the
(§6) residual enzymatic activity was measured as described in experimental
(§7) section. The kobs values were calculated from pseudofirst-order
^b Inhibitor concentration of 0.24 mM.

urokinase = urokinase (Homo sapiens, UniProt P00749); experiment: Inactivation rate of urokinase, incubation method; conditions: Table III; enzyme 0.06-0.5 μM, inhibitor 0.25-42 μM, 9% DMSO, 25° C.; NI = no inhibition
Experimental: as §1, §2, §3, §4, §5, §6, §7

bovine trypsin [1] = molecular target: T3, bovine trypsin (Bos taurus, UniProt P00760); experiment: Inactivation rate of bovine trypsin, incubation method; conditions: Table III; enzyme 0.06-0.5 μM, inhibitor 0.25-42 μM, 9% DMSO, 25° C.; NI = no inhibition
T3 sequence (P00760 24-246): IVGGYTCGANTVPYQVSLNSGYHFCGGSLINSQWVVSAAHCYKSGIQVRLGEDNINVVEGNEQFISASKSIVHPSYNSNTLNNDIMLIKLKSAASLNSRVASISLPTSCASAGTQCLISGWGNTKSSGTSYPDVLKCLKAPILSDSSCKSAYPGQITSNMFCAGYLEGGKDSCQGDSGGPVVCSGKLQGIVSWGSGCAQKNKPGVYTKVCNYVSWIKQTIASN

human granzyme A = molecular target: T4, human granzyme A (Homo sapiens, UniProt P12544); experiment: Inactivation rate of human granzyme A, incubation method; conditions: Table I; 0.1M Hepes, 0.01M CaCl2 pH 7.5, 25° C., 7.6% DMSO, substrate Z--Arg--SBzl
T4 sequence (P12544 29-262): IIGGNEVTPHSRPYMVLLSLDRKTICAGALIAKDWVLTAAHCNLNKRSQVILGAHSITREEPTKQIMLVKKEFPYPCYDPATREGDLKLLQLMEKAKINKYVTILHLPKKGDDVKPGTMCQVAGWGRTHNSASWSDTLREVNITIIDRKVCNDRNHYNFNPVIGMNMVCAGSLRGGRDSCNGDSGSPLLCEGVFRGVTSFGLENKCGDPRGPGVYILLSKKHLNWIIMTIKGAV
Procedure, shortened: (§8)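 Inhibitor in DMSO added to enzyme (0.01-2.3 μM) in 0.1 M HEPES, 0.01 M CaCl2, pH 7.5, 25° C (DMSO 7.6% for granzyme A, 7.1% for granzyme K); residual activity on Z-Arg-SBzl with DTNB read at intervals. Kobs from ln vt/vo vs time plots.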

rat granzyme A = experiment: Inactivation rate of rat granzyme A, incubation method; conditions: Table I; 0.1M Hepes, 0.01M CaCl2 pH 7.5, 25° C., 7.6% DMSO, substrate Z--Arg--SBzl
Experimental: as §1
^a Inhibition constants were measured in 0.1M Hepes, 0.01M CaCl2
pH 7.5 for trypsin, granzymes A, and K, and in 0.1M Hepes, 10% glycerol,
10 mM heparin, pH 7.5 for mast cell tryptase, and at 25° C. The
reaction mixtures contained 2% DMSO for trypsin, 7.6% for granzyme A, and
7.1% for granzyme K and tryptase. The substrate was Z--Arg--SBzl for
granzymes and trypsin, and Z--Arg--SBzl or Z--Lys--SBzl for tryptase in
the presence of DTNB. The inhibitor # concentration ranged from 0.001 to
^b NI, no inhibition after 25 min of incubation with enzyme.

rat granzyme K = molecular target: T5, rat granzyme K (Rattus norvegicus, UniProt P49864); experiment: Inactivation rate of rat granzyme K, incubation method; conditions: Table I; 0.1M Hepes, 0.01M CaCl2 pH 7.5, 25° C., 7.1% DMSO, substrate Z--Arg--SBzl; NI = no inhibition after 25 min of incubation
T5 sequence (P49864 26-258): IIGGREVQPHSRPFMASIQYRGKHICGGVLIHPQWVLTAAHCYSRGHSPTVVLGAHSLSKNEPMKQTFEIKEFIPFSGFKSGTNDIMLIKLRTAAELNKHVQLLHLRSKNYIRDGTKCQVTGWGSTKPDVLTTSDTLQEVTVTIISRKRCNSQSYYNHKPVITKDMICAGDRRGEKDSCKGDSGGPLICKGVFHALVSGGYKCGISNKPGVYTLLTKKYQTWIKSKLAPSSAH
Procedure, shortened: as §8

bovine trypsin [2] = molecular target: T3, bovine trypsin; experiment: Inactivation rate of bovine trypsin, incubation method; conditions: for kobsd /[I] bovine trypsin: Table I, 0.1M Hepes, 0.01M CaCl2 pH 7.5, 25° C., 2% DMSO, substrate Z--Arg--SBzl, NI = no inhibition after 25 min; for kobs /[I] bovine trypsin: Table II, 0.13 μM trypsin, 0.25-42 μM inhibitor, 80 mM Hepes pH 7.5, 1 mM CaCl2, 8% DMSO, 25° C., NI = no inhibition
Procedure, shortened: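 Incubation method: trypsin pre-incubated with inhibitor (0.25-42 μM) at 25° C in 80 mM Hepes, 1 mM CaCl2, pH 7.5, 8% DMSO; aliquots withdrawn over time for residual activity on Z-Arg-SBzl thioester with DTNB or 4,4'-dithiodipyridine. Pseudo-first-order kobs from ln vt/vo versus time.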

[3] = Table III, enzyme 0.06-0.5 μM, inhibitor 0.25-42 μM, 9% DMSO
[4] = Table II, 0.07 μM thrombin, 0.25-42 μM inhibitor, 80 mM Hepes pH 7.5, 428 mM NaCl, 8% DMSO

Sequence of mast cell tryptase (Q15661 31-275): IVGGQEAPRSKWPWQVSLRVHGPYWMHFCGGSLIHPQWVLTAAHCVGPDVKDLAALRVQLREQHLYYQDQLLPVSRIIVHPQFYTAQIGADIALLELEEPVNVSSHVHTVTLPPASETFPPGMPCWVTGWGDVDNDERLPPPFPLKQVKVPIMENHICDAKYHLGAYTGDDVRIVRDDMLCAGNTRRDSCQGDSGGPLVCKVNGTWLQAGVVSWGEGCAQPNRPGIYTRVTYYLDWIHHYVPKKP
T2 sequence (P00747 581-810 limits assumed, species assumed): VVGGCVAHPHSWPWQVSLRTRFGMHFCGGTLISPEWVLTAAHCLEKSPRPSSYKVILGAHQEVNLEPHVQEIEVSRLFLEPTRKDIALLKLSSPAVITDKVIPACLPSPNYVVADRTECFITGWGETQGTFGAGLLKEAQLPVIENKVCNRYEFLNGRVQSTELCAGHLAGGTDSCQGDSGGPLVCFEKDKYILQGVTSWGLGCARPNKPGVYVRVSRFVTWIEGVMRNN
T2 sequence (P00747 97-580 partner limits assumed, species assumed): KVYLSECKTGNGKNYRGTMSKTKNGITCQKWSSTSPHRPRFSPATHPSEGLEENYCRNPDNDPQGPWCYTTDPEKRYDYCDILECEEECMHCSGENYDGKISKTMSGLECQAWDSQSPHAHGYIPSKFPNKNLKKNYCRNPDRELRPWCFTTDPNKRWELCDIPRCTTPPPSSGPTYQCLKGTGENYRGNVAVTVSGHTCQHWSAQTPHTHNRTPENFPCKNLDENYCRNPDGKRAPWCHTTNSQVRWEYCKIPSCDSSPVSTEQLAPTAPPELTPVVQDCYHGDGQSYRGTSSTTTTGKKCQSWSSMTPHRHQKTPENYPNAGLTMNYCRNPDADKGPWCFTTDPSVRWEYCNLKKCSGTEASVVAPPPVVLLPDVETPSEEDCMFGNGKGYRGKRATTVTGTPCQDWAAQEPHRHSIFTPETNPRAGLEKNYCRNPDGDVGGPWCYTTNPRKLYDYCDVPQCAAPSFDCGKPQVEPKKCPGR

Molecule | kobs /[I] mast cell tryptase (mast cell tryptase; [3]) | kobs /[I] human thrombin (human thrombin; [3]) | kobs /[I] plasmin (plasmin) | kobs /[I] urokinase (urokinase) | kobs /[I] bovine trypsin (bovine trypsin [1]) | also measured
CC(C)(C)OC(=O)NC(Cc1ccccc1)C(=O)N1CCCC1C(=O)NC(CCCCN)P(=O)(Oc1ccccc1)Oc1ccccc1 (mixture of isomers) [Boc--D--Phe--Pro--Lys^P (OPh)2] | 68 ± 4 M⁻¹ s⁻¹ | 9,364 ± 110 M^-1 s^-1 | 51 ± 4 M⁻¹ s⁻¹ | 38 ± 3 M⁻¹ s⁻¹ | 28,840 ± 1,800 M^-1 s^-1 | –
NCCCCCC(NC(=O)C1CCCN1C(=O)C(N)Cc1ccccc1)P(=O)(Oc1ccccc1)Oc1ccccc1 (mixture of isomers) [D--Phe--Pro-HomoLys^P (OPh)2] | 4.1 0.2 M^-1 s^-1 | 1,342 ± 272 M^-1 s^-1 | – | 7.8 ± 0.0 M⁻¹ s⁻¹ | 164 ± 14 M⁻¹ s⁻¹ | –
Diphenyl N-(N-Benzyloxycarbonyl)amino(6-aminohexyl)methanephosphonate [Cbz-HomoLys^P (OPh)2] | 0.7 M⁻¹ s⁻¹ | – | – | 1.0 ± 0.0 M⁻¹ s⁻¹ | 21 ± 6 M⁻¹ s⁻¹ | –
NCCCCC(NC(=O)C1CCCN1C(=O)CNS(=O)(=O)Cc1ccccc1)P(=O)(Oc1ccccc1)Oc1ccccc1 (mixture of isomers) [PhCH2 SO2 --Gly--Pro--Lys^P (OPh)2] | 24 ± 0 M⁻¹ s⁻¹ | 649 ± 14 M⁻¹ s⁻¹ | 13 ± 1 M⁻¹ s⁻¹ | 39 ± 2 M⁻¹ s⁻¹ | 12,472 ± 1,400 M^-1 s^-1 | –
CC(O)C(NC(=O)OCc1ccccc1)C(=O)NC(CCCCN)P(=O)(Oc1ccccc1)Oc1ccccc1 (mixture of isomers) [Cbz--Thr--Lys^P (OPh)2] | 7 ± 1 M⁻¹ s⁻¹ | – | – | 0.7 ± 0.1 M⁻¹ s⁻¹ | 230 M⁻¹ s⁻¹ | –
Cl.NCCCCCC(NC(=O)[C@@H]1CCCN1C(=O)c1ccccc1Oc1ccccc1)P(=O)(Oc1ccccc1)Oc1ccccc1 (stereo partly shown) [2-Phenoxybenzoyl-Pro-HomoLys^P (OPh)2, Diphenyl 1-(N-(2-Phenoxybenzoylprolyl)amino)-6-aminohexanephosphonate Hydrochloride] | 7.7 ± 0.3 M⁻¹ s⁻¹ | 57 ± 5 M⁻¹ s⁻¹ | 3.6 ± 0.4 M⁻¹ s⁻¹ | 24 ± 4 M⁻¹ s⁻¹ | 69 ± 13 M⁻¹ s⁻¹ | –
NCCCCCC(NC(=O)[C@@H]1CCCN1C(=O)CC(c1ccccc1)c1ccccc1)P(=O)(Oc1ccccc1)Oc1ccccc1 (stereo partly shown) [3,3-Diphenylpropanoyl-Pro-HomoLys^P (OPh)2] | 1.1 ± 0.0 M⁻¹ s⁻¹ | 224 ± 8 M⁻¹ s⁻¹ | – | 2.1 ± 0.2 M⁻¹ s⁻¹ | 16 ± 1 M⁻¹ s⁻¹ | % Inh plasmin (plasmin; inhibitor concentration of 0.24 mM): 50%
N=C(N)c1ccc(C(NC(=O)C(Cc2ccccc2)NC(=O)OCc2ccccc2)P(=O)(Oc2ccccc2)Oc2ccccc2)cc1 (mixture of isomers) [Cbz--Phe-(4-AmPhGly)^P (OPh)2] | – | – | – | – | – | kobsd /[I] human granzyme A (human granzyme A): 14 ± 1 M⁻¹ s⁻¹; kobsd /[I] rat granzyme A (rat granzyme A): 8 M⁻¹ s⁻¹; kobsd /[I] rat granzyme K (rat granzyme K): 13 M⁻¹ s⁻¹; % Inh mast cell tryptase (mast cell tryptase; Table I, printed in the kobsd/[I] column): 5%; % Inh mast cell tryptase (mast cell tryptase; Table II, printed in the kobs/[I] column): 5%; kobsd /[I] bovine trypsin (bovine trypsin [2]): 17 ± 1 M⁻¹ s⁻¹; kobs /[I] bovine trypsin (bovine trypsin [2]): 17 ± 1 M⁻¹ s⁻¹; kobs /[I] human thrombin (human thrombin; [4]): 20 ± 1 M⁻¹ s⁻¹
Cl.N=C(N)c1ccc(C(NC(=O)c2ccccc2Oc2ccccc2)P(=O)(Oc2ccccc2)Oc2ccccc2)cc1 (stereo not shown) [2-Phenoxybenzoyl-(4-AmPhGly)^P (OPh)2, Diphenyl N-(2-Phenoxybenzoyl)amino(4-amidinophenyl)methanephosphonate Hydrochloride] | – | – | – | – | – | kobsd /[I] human granzyme A (human granzyme A): 540 ± 3 M⁻¹ s⁻¹; kobsd /[I] rat granzyme A (rat granzyme A): 340 ± 1 M⁻¹ s⁻¹; kobsd /[I] rat granzyme K (rat granzyme K): 1 M⁻¹ s⁻¹; kobsd /[I] mast cell tryptase (mast cell tryptase; Table I, 0.1M Hepes, 10% glycerol, 10 mM heparin, pH 7.5, 25° C., 7.1% DMSO, NI = no inhibition after 25 min of incubation): 0.4 M⁻¹ s⁻¹; kobs /[I] mast cell tryptase (mast cell tryptase; Table II, 0.07 μM tryptase, 20-66 μM inhibitor, Hepes pH 7.5, heparin, 9% glycerol, 8% DMSO): 0.4 M⁻¹ s⁻¹; kobsd /[I] bovine trypsin (bovine trypsin [2]): 670 ± 53 M⁻¹ s⁻¹; kobs /[I] bovine trypsin (bovine trypsin [2]): 670 ± 53 M⁻¹ s⁻¹; kobs /[I] human thrombin (human thrombin; [4]): 270 ± 20 M⁻¹ s⁻¹
